The values that follow are results of earlier work, collected in publication PMC11676910, “Manganese(II) Complexes with Non-Steroidal Anti-Inflammatory Drugs: Structure and Biological Activity” (International Journal of Molecular Sciences, 2024).

Molecules are shown by their SMILES. Read-outs that look alike come from different tables or passages of the source.

Details of data set [1]: concentration or dose not given beside the values. To be noted: free NSAID; cited from earlier work.
The subject of a further data set is CT DNA. To be noted: cited from earlier work.
The subject of a further data set is EB–DNA adduct (CT DNA). The note with it: cited from earlier work.
Data set [2] deals with bovine serum albumin (BSA) (Bos taurus, UniProt P02769). More on the design: purchased Sigma–Aldrich Co. The note with it: cited from earlier work.
In data set [3] the target is human serum albumin (HSA) (Homo sapiens, UniProt P02768). More on the design: purchased Sigma–Aldrich Co. The note with it: cited from earlier work.
human serum albumin (HSA), sequence (P02768 25-609): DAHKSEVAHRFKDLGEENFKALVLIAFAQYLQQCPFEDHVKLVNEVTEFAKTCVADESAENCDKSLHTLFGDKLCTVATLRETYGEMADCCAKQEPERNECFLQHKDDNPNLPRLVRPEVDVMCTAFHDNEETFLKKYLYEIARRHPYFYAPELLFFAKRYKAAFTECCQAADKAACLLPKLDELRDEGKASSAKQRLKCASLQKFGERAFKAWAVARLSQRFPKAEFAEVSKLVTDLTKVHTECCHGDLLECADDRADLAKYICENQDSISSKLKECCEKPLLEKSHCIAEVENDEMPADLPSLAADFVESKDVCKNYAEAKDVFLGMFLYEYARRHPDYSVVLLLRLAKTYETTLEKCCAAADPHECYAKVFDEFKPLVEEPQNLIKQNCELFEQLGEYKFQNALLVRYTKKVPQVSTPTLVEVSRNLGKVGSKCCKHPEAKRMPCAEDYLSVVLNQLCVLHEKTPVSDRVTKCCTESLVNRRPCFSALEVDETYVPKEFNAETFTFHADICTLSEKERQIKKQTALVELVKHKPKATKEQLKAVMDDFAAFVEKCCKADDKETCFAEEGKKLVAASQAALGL

bovine serum albumin (BSA), sequence (P02769 25-607): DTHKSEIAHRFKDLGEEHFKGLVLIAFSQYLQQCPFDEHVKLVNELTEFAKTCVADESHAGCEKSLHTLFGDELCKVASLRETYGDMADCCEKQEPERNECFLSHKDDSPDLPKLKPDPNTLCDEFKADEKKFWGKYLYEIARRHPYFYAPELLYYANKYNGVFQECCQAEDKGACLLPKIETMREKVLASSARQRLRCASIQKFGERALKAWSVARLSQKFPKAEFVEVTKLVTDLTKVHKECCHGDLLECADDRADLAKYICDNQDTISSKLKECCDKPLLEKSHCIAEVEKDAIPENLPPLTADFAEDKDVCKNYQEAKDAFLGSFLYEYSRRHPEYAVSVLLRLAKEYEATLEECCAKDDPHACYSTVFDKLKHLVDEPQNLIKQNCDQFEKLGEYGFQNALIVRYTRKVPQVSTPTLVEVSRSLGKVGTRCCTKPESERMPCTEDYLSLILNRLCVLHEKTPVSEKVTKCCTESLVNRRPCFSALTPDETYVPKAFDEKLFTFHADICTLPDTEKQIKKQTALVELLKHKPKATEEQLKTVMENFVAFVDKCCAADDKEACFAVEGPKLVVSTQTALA

Turning to `Cc1c(Cl)cccc1Nc1ccccc1C(=O)O` [Htolf, tolfenamic acid], the “% ABTS radical scavenging activity (ABTS%)” value in data set [1] is listed as 59.43 ± 0.33%. Moreover, in the data set with CT DNA (first band listed in the cell), the “ΔA/A0 (%) hyper-/hypo-chromism of UV band” value is “+40%” and the “Δλ (nm) shift of λmax” value was “+5 nm”. Moreover, in the data set with CT DNA (second band listed in the cell), the “ΔA/A0 (%) hyper-/hypo-chromism of UV band” value is recorded as below −50% and the “Δλ (nm) shift of λmax” value was −2 nm. Also, in the data set on EB–DNA adduct (CT DNA), the “EB–DNA fluorescence quenching ΔI/Io (%)” value is listed as 74.0%, the “Stern–Volmer constant KSV (EB–DNA)” value is 1.15 (±0.04) × 10^6 M^–1 and the “quenching constant kq of the EB–DNA fluorescence” value is 5.00 (±0.17) × 10^13 M^–1s^–1. Moreover, in data set [2], the “BSA binding constant Κ(BSA)” value is given as 1.60 (±0.14) × 10^5 M^–1 and the “BSA quenching constant kq(BSA)” value is recorded as 2.18 (±0.12) × 10^13 M^–1s^–1. In data set [3], the “HSA binding constant Κ(HSA)” value is on record as 3.12 (±0.25) × 10^5 M^–1 and the “HSA quenching constant kq(HSA)” value was 6.10 (±0.38) × 10^12 M^–1s^–1.
In the case of `Cc1ccc(Cl)c(Nc2ccccc2C(=O)O)c1Cl` [Na meclf, sodium meclofenamate], the “% ABTS radical scavenging activity (ABTS%)” value in data set [1] is 59.48 ± 0.06%. In addition, in the data set on CT DNA (first band listed in the cell), the “ΔA/A0 (%) hyper-/hypo-chromism of UV band” value is listed as −12% and the “Δλ (nm) shift of λmax” value is −1 nm. In addition, in the data set on CT DNA (second band listed in the cell), the “ΔA/A0 (%) hyper-/hypo-chromism of UV band” value is recorded as “+5%” and the “Δλ (nm) shift of λmax” value is recorded as −2 nm. In the data set on EB–DNA adduct (CT DNA), the “EB–DNA fluorescence quenching ΔI/Io (%)” value is on record as 80.1%, the “Stern–Volmer constant KSV (EB–DNA)” value is recorded as 8.20 (±0.26) × 10^4 M^–1 and the “quenching constant kq of the EB–DNA fluorescence” value is on record as 3.57 (±0.11) × 10^12 M^–1s^–1. In addition, in data set [2], the “BSA binding constant Κ(BSA)” value was 1.78 (±0.11) × 10^6 M^–1 and the “BSA quenching constant kq(BSA)” value is 4.84 (±0.32) × 10^13 M^–1s^–1. For the same compound, in data set [3], the “HSA binding constant Κ(HSA)” value is 1.05 (±0.03) × 10^6 M^–1 and the “HSA quenching constant kq(HSA)” value is recorded as 2.98 (±0.31) × 10^13 M^–1s^–1.
